ChEMBL document CHEMBL5604063, “ASAP - DENV-2 NS2B-NS3 protease fluorescence dose response” (2024)
Where “and” joins values, the source holds several entries; their conditions need not be identical. Equal entries are not always repeated.

The molecules below were run against Genome polyprotein (dengue virus type 2, UniProt P29990).
Sequence of Genome polyprotein (P29990 1346-1475 limits assumed): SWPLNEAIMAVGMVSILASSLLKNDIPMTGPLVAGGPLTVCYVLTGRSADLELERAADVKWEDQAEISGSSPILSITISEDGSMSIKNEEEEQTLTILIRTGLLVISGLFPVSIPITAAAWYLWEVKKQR
Sequence of Genome polyprotein (P29990 1476-2093 limits assumed): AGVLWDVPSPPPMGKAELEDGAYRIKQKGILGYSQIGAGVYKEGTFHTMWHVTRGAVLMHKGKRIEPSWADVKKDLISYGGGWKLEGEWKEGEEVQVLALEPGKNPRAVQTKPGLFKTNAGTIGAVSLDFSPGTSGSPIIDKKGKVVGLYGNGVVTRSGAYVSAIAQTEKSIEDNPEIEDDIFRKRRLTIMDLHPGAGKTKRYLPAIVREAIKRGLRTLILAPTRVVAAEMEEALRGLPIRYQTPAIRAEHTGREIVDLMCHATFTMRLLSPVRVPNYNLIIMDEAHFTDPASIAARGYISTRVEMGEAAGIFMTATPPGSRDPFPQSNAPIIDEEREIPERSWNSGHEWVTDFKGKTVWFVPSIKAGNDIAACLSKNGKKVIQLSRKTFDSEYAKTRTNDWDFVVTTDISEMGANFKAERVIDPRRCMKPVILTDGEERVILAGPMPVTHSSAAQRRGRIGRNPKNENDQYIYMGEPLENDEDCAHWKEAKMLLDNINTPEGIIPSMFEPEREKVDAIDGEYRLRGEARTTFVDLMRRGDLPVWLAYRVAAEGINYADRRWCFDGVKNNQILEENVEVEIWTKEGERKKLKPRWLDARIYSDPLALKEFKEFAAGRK
Type: functional, Thailand/16681/1984
Molecule `Clc1ccc2[nH]ncc2c1[C@@H]1C[C@H]1c1ccc2c(c1)CNC2` has an IC50 of over 99.5 µM. For `COC(=O)c1cc(Cl)ccc1NS(=O)(=O)c1ccc(Br)cc1`, the IC50 was over 99.5 µM. `O=S1(=O)CCN(CC#Cc2ccc3sncc3c2)CC1` showed an IC50 of over 99.5 µM. In the case of `NCc1cccc(NC(=O)[C@@]23C[C@@H](NC(=O)OCc4ccccc4)C[C@@H]2C3)c1`, the IC50 is reported as over 99.5 µM. `O=c1ccn(Cc2cc(=O)n3ccccc3n2)c2ccsc12` was tested, and the IC50 was over 99.5 µM. With `CCn1cc(-c2ccc(OC)c(C)c2)nc(N2CC[C@@H](CO)C2)c1=O` the IC50 was over 99.5 µM. `Cn1cc(N2CCN(Cc3c[nH]c4ccccc34)CC2)cn1` showed an IC50 of over 99.5 µM. Work on `N[C@H]1CC[C@H](CNC(=O)[C@@H](NC(=O)OCc2ccccc2)c2ccc(OCc3ccccc3)cc2)CC1` yielded an IC50 of over 99.5 µM. `O=C1O[C@H]2CCN(Cc3ccc(OCc4ccccc4)cc3)C[C@H]12` gave an IC50 of over 99.5 µM. Work on `CC1(N2CCC(NS(=O)(=O)c3ccc(Cl)cc3C(=O)O)CC2)CCCCC1` yielded an IC50 of over 99.5 µM. Molecule `O=C(Nc1ccc2c(c1)CNC2)c1ncnc2ccsc12` has an IC50 of over 99.5 µM. `NCc1cccc(NC(=O)C[C@@H]2[C@H]3CC[C@H](C3)N2C(=O)OCc2ccccc2)c1` showed an IC50 of over 99.5 µM. For `O=C(O)c1cc(Cl)ccc1S(=O)(=O)NC1CCN(c2ncnc3c2CCC3)CC1`, the IC50 was over 99.5 µM. `O=C(Cc1cccc2[nH]ncc12)Nc1ccc2c(c1)CNC2` gave an IC50 of over 99.5 µM. In the case of `CCn1c(=O)c(N2CC[C@H](CO)C2)nc2ccc(C(=O)OC)cc21`, the IC50 is reported as 82.9 µM. With `N#Cc1c(C(F)F)cccc1N1CCC(n2ncc(N)c2C(F)(F)F)CC1` the IC50 was over 99.5 µM. `O=C(N[C@@H](C(=O)NCc1cnccn1)c1ccc(OCc2ccccc2)cc1)OCc1ccccc1` showed an IC50 of over 99.5 µM. `CCn1c(=O)c(N2C[C@@H]3[C@H](C2)[C@H]2CC[C@@H]3O2)nc2ccccc21` gave an IC50 of over 99.5 µM. In the case of `CC(C)(C)c1ccc2[nH]cc(CN3CCC(c4cscn4)CC3)c2c1`, the IC50 is reported as over 99.5 µM. For `Cc1nnc([C@H](C)n2cc(C3CCNCC3)c(C)n2)o1`, the IC50 was over 99.5 µM. Work on `O=C(Nc1cc(Cl)cc(C(=O)Nc2cccc(CC3CCNCC3)c2)c1)OCc1ccccc1` yielded an IC50 of over 99.5 µM. `Cc1cnn(-c2cc(C(=O)O)c(NS(=O)(=O)c3ccc(Oc4ccccc4Cl)cc3)cc2F)c1` gave an IC50 of 6.2 µM. In the case of `O=C(O)c1cc(F)c(F)c(F)c1NS(=O)(=O)c1ccc(Oc2ccccc2Cl)cc1`, the IC50 is reported as 24.5 µM. `N=C(N)NCCc1ccc(NC(=O)Oc2ccccc2)cc1` gave an IC50 of over 99.5 µM. In the case of `O=C(O)c1cc(Cl)ccc1S(=O)(=O)Nc1ccc(Oc2ccccc2Cl)cc1`, the IC50 is reported as 16.8 µM. For `O=C(N[C@@H](C(=O)Nc1cccnc1)c1ccc(OCc2ccccc2)cc1)OCc1ccccc1`, the IC50 was over 99.5 µM. Work on `O=c1c2cccn2cnn1Cc1cnc(Cl)s1` yielded an IC50 of over 99.5 µM. Work on `c1ccc2c(CN3CC(c4cscn4)C3)c[nH]c2c1` yielded an IC50 of over 99.5 µM. `O=C(NS(=O)(=O)C1CC1)c1cc(Cl)ccc1NS(=O)(=O)c1ccc(Oc2ccccc2Cl)cc1` showed an IC50 of 7.33 µM. `CC[C@H]1CCN(C(=O)c2cc(Cl)ccc2NS(=O)(=O)c2ccc(Oc3ccccc3Cl)cc2)C1` gave an IC50 of over 99.5 µM. With `NCc1cccc(NC(=O)[C@@H](NS(=O)(=O)c2ccccn2)c2ccc(OCc3ccccc3)cc2)c1` the IC50 was over 99.5 µM. Work on `O=C(O)c1ccc(F)c(F)c1NS(=O)(=O)c1ccc(Oc2ccccc2Cl)cc1` yielded an IC50 of 31.1 µM. `O=C(O)[C@H]1CCCC[C@@H]1NS(=O)(=O)c1ccc(Oc2ccccc2Cl)cc1` was tested, and the IC50 was over 99.5 µM. `CNC(=O)c1cc(Cl)c(F)cc1NS(=O)(=O)c1ccc(Oc2ccccc2Cl)cc1` showed an IC50 of 14.9 µM. `O=C1c2c(O)ccc([N+](=O)[O-])c2C(=O)c2c([N+](=O)[O-])ccc(O)c21` was tested, and the IC50 was 12.7 µM and > 99.5 µM. For `NCc1cccc(NC(=O)[C@@H](NC(=O)OCc2ccccc2)c2cccc(Br)c2)c1`, the IC50 was 85.8 µM. For `O=Cc1ccc(N2CCC(C(=O)NCCc3ccc(O)c(O)c3)CC2)cc1`, the IC50 was 35 µM. In the case of `O=C(O)c1ncc(F)cc1NS(=O)(=O)c1ccc(Oc2ccccc2Cl)cc1`, the IC50 is reported as 61.7 µM. Molecule `CCn1cc(S(=O)(=O)N[C@@H](C(=O)Nc2cccc(CN)c2)c2ccc(OCc3ccccc3)cc2)cn1` has an IC50 of over 99.5 µM. With `CCc1cc(COc2ccc(S(=O)(=O)Nc3ccc(Cl)cc3C(=O)O)cc2)no1` the IC50 was 45.5 µM. In the case of `CCn1nc(C)c(CN(C)Cc2ccc3c(c2)CCNCC3)c1C`, the IC50 is reported as over 99.5 µM. For `CCn1cc(-c2ccc3nn(C)cc3c2)nc(N2CC[C@@H](CO)C2)c1=O`, the IC50 was over 99.5 µM. Work on `CS(=O)(=O)c1ccc(N2CCNCC2)cc1NC(=O)c1cccc2ncccc12` yielded an IC50 of over 99.5 µM. In the case of `CN(C)Cc1nnc(NC(=O)[C@@H](NC(=O)OCc2ccccc2)c2ccc(OCc3ccccc3)cc2)s1`, the IC50 is reported as over 99.5 µM. Work on `COCc1cc(Cl)ccc1NS(=O)(=O)c1ccc(Oc2ccccc2Cl)cc1` yielded an IC50 of over 99.5 µM. `COc1ccc(S(=O)(=O)Nc2cc(F)c(Cl)cc2C(=O)O)cc1` gave an IC50 of over 99.5 µM. For `CCn1c(=O)c(N2CC[C@@]3(COC(=O)N3)C2)nc2ccccc21`, the IC50 was over 99.5 µM. With `NCc1cc(S(=O)(=O)Nc2ccc(Cl)cc2C(=O)O)ccc1Oc1ccccc1` the IC50 was over 99.5 µM. Molecule `O=C(O)c1cc2c(cc1NS(=O)(=O)c1ccc(Oc3ccccc3Cl)cc1)CCC2` has an IC50 of 7.97 µM. `COc1cc(C(=O)O)c(S(=O)(=O)Nc2ccc(Oc3ccccc3Cl)cc2)cc1F` was tested, and the IC50 was 30.3 µM. In the case of `CCn1c(=O)c(N2C[C@H]3C[C@@]3(C(F)F)C2)nc2ccccc21`, the IC50 is reported as over 99.5 µM. `O=C(O)c1cc(Cl)cc(Cl)c1S(=O)(=O)Nc1ccc(Oc2ccccc2Cl)cc1` was tested, and the IC50 was over 99.5 µM. `CCc1cccc2c(CN3CCC(c4cscn4)CC3)c[nH]c12` showed an IC50 of over 99.5 µM. With `CS(=O)(=O)Nc1ccc(C(=O)Nc2nc3ccccc3s2)cc1` the IC50 was over 99.5 µM. `CC(C)(C)OC(=O)NCc1cccc(NC(=O)c2cc(N)cc(Cl)c2)c1` showed an IC50 of over 99.5 µM. For `CCOCCNC(=O)c1cc(Cl)ccc1NS(=O)(=O)c1ccc(Oc2ccccc2Cl)cc1`, the IC50 was 20 µM and 20.5 µM. `CCn1c(=O)c(N2CCC[C@H]2c2cncc(Br)c2)nc2ccccc21` was tested, and the IC50 was over 99.5 µM. `NCc1ccc(-c2ncc(OCC3CCNCC3)nc2-c2ccc(C3CCOCC3)cc2)cc1` showed an IC50 of over 99.5 µM. Molecule `O=C(O)c1c(Br)sc2nnsc12` has an IC50 of 69.5 µM. Molecule `NCc1cccc(NC(=O)[C@H](NC(=O)OCc2ccccc2)c2cccc(-c3ccc(S(N)(=O)=O)cc3)c2)c1` has an IC50 of over 99.5 µM. For `O=C(O)c1cc(Cl)ccc1NS(=O)(=O)c1ccc(OCc2cncnc2)cc1`, the IC50 was over 99.5 µM. In the case of `O=C(Nc1ccc2c(c1)CNC2)N1C[C@H](C(F)F)C2(CC2)C1`, the IC50 is reported as over 99.5 µM. Work on `CC(C)(C)Oc1ccc(S(=O)(=O)Nc2ccc(Cl)cc2C(=O)O)cc1` yielded an IC50 of over 99.5 µM. In the case of `Cc1ccc(C(=O)N[C@H](C(=O)Nc2cccc(CN)c2)c2ccc(OCc3ccccc3)cc2)s1`, the IC50 is reported as 97.7 µM. `CCN1C(=O)CCc2cc(NS(=O)(=O)c3ccc(Cl)cc3C(=O)O)ccc21` gave an IC50 of over 99.5 µM. `NCc1cccc(NC(=O)[C@@H](NC(=O)OCc2ccccc2)C2CCCCC2)c1` showed an IC50 of over 99.5 µM. `C[C@@H](O)c1cccc(N2CCC(c3nc(N)ncc3F)CC2)n1` showed an IC50 of over 99.5 µM. `Cc1c(NC(=O)OCc2ccccc2)cc(C(=O)Nc2cccc(CN)c2)cc1C(F)(F)F` gave an IC50 of 91.4 µM. `NC[C@H]1CC[C@H](NC(=O)c2cc(Cl)cc(NC(=O)OCc3ccccc3)c2)CC1` showed an IC50 of over 99.5 µM. `COc1ncccc1-c1cccc([C@H](NC(=O)OCc2ccccc2)C(=O)Nc2cccc(CN)c2)c1` gave an IC50 of over 99.5 µM. In the case of `Cc1nc(-c2ccc([C@@H](NC(=O)OCc3ccccc3)C(=O)Nc3cccc(CN)c3)cc2)cs1`, the IC50 is reported as over 99.5 µM. `O=C(O)c1cc(Cl)ccc1S(=O)(=O)NC1CCN(c2nc(C3CC3)cc(C(F)(F)F)n2)CC1` showed an IC50 of 15.5 µM. `CCn1ccnc(N2C[C@@H](OC(=O)OC)[C@H](c3c[nH]c4ccccc34)C2)c1=O` showed an IC50 of over 99.5 µM. In the case of `O=C(O)c1cc(Cl)ccc1NS(=O)(=O)c1ccc(Oc2ccccc2Cl)nc1`, the IC50 is reported as 46.9 µM. `CC(C)[C@H](N)P(=O)(Oc1ccc(F)cc1)Oc1ccc(F)cc1` was tested, and the IC50 was over 99.5 µM. Work on `CCn1c(=O)c(N2CC[C@H](c3cnccn3)C2)nc2ccccc21` yielded an IC50 of over 99.5 µM. `Cn1nccc1CN1CCC(NS(=O)(=O)c2ccc(Cl)cc2C(=O)O)CC1` showed an IC50 of over 99.5 µM. Molecule `CCn1cc(-c2c[nH]c3ncccc23)nc(N2CC[C@@H](CO)C2)c1=O` has an IC50 of over 99.5 µM. With `NCc1cccc(NC(=O)[C@H](NC(=O)COc2ccccc2)c2ccc(OCc3ccccc3)cc2)c1` the IC50 was 55.2 µM. Molecule `CC(C)[C@H]1C(=O)O[C@@H]1C(=O)O` has an IC50 of over 99.5 µM. `COc1c(C)cc(C(=O)Nc2cccc(CN)c2)cc1NC(=O)OCc1ccccc1` was tested, and the IC50 was over 99.5 µM. For `O=C(N[C@H](C(=O)NCc1cccc(CO)c1)c1ccc(OCc2ccccc2)cc1)OCc1ccccc1`, the IC50 was over 99.5 µM. In the case of `O=C(Nc1cc(Cl)cc(C(=O)Nc2ncc([C@H]3CCCN3)s2)c1)OCc1ccccc1`, the IC50 is reported as over 99.5 µM. With `OCc1ccc(Cl)c(N2CCN(c3ccc4[nH]cnc4c3)CC2)n1` the IC50 was over 99.5 µM. Molecule `O=C(O)c1cc(NS(=O)(=O)c2ccc(Oc3ccccc3Cl)cc2)ccc1Cl` has an IC50 of over 99.5 µM. With `c1ccc2c(CN[C@H]3CCc4ncsc4C3)n[nH]c2c1` the IC50 was over 99.5 µM. `NCc1cccc(NC(=O)[C@@H](N)c2ccc(OCc3ccccc3)cc2)c1` gave an IC50 of over 99.5 µM. `N#Cc1ccccc1-c1ccc([C@H](NC(=O)OCc2ccccc2)C(=O)Nc2cccc(CN)c2)cc1` was tested, and the IC50 was 18.6 µM. Work on `c1cc(-c2cc(CN3CCC(c4cscn4)CC3)n[nH]2)ccn1` yielded an IC50 of over 99.5 µM. For `O=C(O)c1cc(Cl)ccc1S(=O)(=O)N[C@H]1CC[C@@H](Oc2ccccc2)CC1`, the IC50 was over 99.5 µM. In the case of `C[C@]1(O)C(=O)Nc2cc(F)cc(C(=O)Nc3ccc4c(c3)CNC4)c21`, the IC50 is reported as over 99.5 µM. `NCc1cccc(NC(=O)c2cc(N)cc(NC(=O)OCc3ccccc3)c2)c1` gave an IC50 of over 99.5 µM. `CN(C)Cc1csc(NC(=O)[C@@H](NC(=O)OCc2ccccc2)c2ccc(OCc3ccccc3)cc2)n1` was tested, and the IC50 was over 99.5 µM. `O=Cc1ccc(F)c(C(=O)N2CCN(C3=NCCCN3)CC2)c1` gave an IC50 of over 99.5 µM. For `Cc1nnsc1Cn1ccc(Br)n1`, the IC50 was over 99.5 µM. With `CN1CCN(Cc2ccccc2CNC(=O)[C@@H](NC(=O)OCc2ccccc2)c2ccc(OCc3ccccc3)cc2)CC1` the IC50 was over 99.5 µM. For `CCn1c(=O)c(N2C[C@H]3CCCN3C(=O)[C@H]2C)nc2ccccc21`, the IC50 was over 99.5 µM. In the case of `COc1ncccc1S(=O)(=O)N[C@H](C(=O)Nc1cccc(CN)c1)c1ccc(OCc2ccccc2)cc1`, the IC50 is reported as over 99.5 µM. Work on `C[C@@H](NC(=O)c1cc(Cl)ccc1NS(=O)(=O)c1ccc(Oc2ccccc2Cl)cc1)C(=O)O` yielded an IC50 of over 99.5 µM. Molecule `O=C(Nc1cc(-c2cccnc2)ccn1)c1nc(Br)n2c1CNCC2` has an IC50 of over 99.5 µM. For `O=C(O)[C@@H]1CC2(CC[C@@H]1NS(=O)(=O)c1ccc(Oc3ccccc3Cl)cc1)CC2`, the IC50 was over 99.5 µM. With `NCc1cccc(NC(=O)[C@@H](NC(=O)OCc2ccccc2)c2cccnc2)c1` the IC50 was over 99.5 µM. For `COc1cncc(CNC(=O)[C@@H](NC(=O)OCc2ccccc2)c2ccc(OCc3ccccc3)cc2)c1`, the IC50 was over 99.5 µM.
